Earlier results as cited in patent publication US20050244498A1 (priority 2001, published 2005).

Details: in vivo

Structure (SMILES) | elimination half-life
CN(C)CC(c1ccc(O)cc1)C1(O)CCCCC1 (centres unmarked) [active metabolite, O-desmethylvenlafaxine] | about 8 hours
COc1ccc(C(CN(C)C)C2(O)CCCCC2)cc1 (racemic) [venlafaxine, (R/S)-1-[2-(dimethylamino)-1-(4methoxyphenyl)ethyl]cyclohexanol] | about 4 hours
